Measurements published in patent US12527873B2, “Glycocalyx mimetic coatings” (The Regents of The University of California, priority 2019, dated 2026).

What was measured:
E-selectin [1] = target: T1, E-selectin (Homo sapiens, UniProt P16581); assay: PMN binding to E-selectin coated microspheres (flow cytometry); type: cell-based; set-up: purchased R&D Systems; settings: IkL peptide 450 μM, DS-IkL15 30 μM; p<0.05; FIG. 9
T1 sequence (P16581 22-610): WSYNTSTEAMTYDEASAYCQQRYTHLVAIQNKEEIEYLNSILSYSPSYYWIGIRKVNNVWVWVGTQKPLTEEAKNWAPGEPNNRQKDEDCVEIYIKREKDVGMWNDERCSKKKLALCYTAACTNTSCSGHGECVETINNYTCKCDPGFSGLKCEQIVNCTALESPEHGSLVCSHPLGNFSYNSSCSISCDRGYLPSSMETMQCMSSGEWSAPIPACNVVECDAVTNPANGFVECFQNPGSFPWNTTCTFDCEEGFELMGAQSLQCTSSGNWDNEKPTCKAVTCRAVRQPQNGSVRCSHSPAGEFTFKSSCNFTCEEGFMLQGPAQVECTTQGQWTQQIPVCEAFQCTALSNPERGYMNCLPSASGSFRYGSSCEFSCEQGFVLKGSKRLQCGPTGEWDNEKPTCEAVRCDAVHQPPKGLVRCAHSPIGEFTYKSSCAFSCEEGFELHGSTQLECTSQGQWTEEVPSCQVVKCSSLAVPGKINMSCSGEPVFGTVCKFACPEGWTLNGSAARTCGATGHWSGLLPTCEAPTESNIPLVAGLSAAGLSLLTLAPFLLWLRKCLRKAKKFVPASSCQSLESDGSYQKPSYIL
Procedure: To validate the new molecule, fluorescent carboxylate microspheres were coated with recombinant human E-selectin (R&D Systems, Minneapolis, MN) using a PolyLink coupling kit (PolySciences Inc., Warrington, PA). Functionalized microspheres were treated with HBSS^+/+, EC-SEAL (30 μM), DS-IkL10 (30 μM), DS-IkL15 (30 μM), or GMI-1070 ([…]) for one hour. During this time, human neutrophils were isolated from whole blood using an established protocol. Briefly, 6 mL of whole blood were collected into an EDTA coated tube in accordance with the UC Davis Internal Review Board under IRB assurance No. 00004557. Neutrophils were isolated using an EasyStep Direct Human Neutrophil Isolation Kit (Stem Cell Technologies, Vancouver, BC, Canada), centrifuged, and resuspended in HBSS^+/+, with 0.1% human serum albumin (HSA) at 1×10^6 cells/mL. Cells were labeled with fluorescently tagged anti-CD15 for detection. Microspheres were pelleted and resuspended in 100 uL labeled neutrophils, then incubated for 30 minutes at room temperature with rotation (150 rpm). Samples were fixed in 4% PFA and read on an Attune NxT Flow Cytometer. Data was analyzed using FlowJo flow cytometry software (San Diego, Calif.) to determine the top three performing variants. This was repeated 2-6 times for an n of 3-7. […]

[2] = tested on: stimulated human cardiac microvascular endothelial cells (HCMECs); assay: Platelet activation on stimulated HCMECs (NAP-2, PF-4 in supernatant); type: cell-based; settings: DS-IkL 30 μM, IkL peptide 450 μM, DS 30 μM, platelets 1 hour on TNF-α/IL-1β stimulated HCMECs
Excerpt: Enhanced platelet activation and binding have been implicated in a multitude of chronic inflammatory diseases, including acute coronary and pulmonary syndromes (Lisman, T, Cell Tissue Res. 2018; 371(3):567-576). Activated platelets release cytokines such as platelet factor 4 (PF-4) and neutrophil activating peptide 2 (NAP-2) that can in turn activate neutrophils (Pitchford, S., D. Pan, and H. C. Welch. Curr. Opin. Hematol. 2017; 24(1):23-31). To test if treatment of inflamed endothelial cells with DS-IkL could reduce the activation of platelets as assessed by PF-4 and NAP-2 levels, platelets were allowed to interact with stimulated human cardiac microvascular endothelial cells (HCMECs, PromoCell) under standard culture conditions for 1 hour before supernatant was collected. Stimulation media was prepared by diluting to 0.4 ng/ml tumor necrosis factor alpha (TNF-α) and 0.3 ng/ml interleukin 1 beta (IL-1β) in complete endothelial growth medium MV (PromoCell).

P-selectin = target: T2, P-selectin (Homo sapiens, UniProt P16109); assay: Binding to P-selectin coated surfaces (fluorescently tagged molecule, MFI); settings: increasing concentrations; MFI normalized to vehicle (HBSS); FIG. 6
T2 sequence (P16109 42-830): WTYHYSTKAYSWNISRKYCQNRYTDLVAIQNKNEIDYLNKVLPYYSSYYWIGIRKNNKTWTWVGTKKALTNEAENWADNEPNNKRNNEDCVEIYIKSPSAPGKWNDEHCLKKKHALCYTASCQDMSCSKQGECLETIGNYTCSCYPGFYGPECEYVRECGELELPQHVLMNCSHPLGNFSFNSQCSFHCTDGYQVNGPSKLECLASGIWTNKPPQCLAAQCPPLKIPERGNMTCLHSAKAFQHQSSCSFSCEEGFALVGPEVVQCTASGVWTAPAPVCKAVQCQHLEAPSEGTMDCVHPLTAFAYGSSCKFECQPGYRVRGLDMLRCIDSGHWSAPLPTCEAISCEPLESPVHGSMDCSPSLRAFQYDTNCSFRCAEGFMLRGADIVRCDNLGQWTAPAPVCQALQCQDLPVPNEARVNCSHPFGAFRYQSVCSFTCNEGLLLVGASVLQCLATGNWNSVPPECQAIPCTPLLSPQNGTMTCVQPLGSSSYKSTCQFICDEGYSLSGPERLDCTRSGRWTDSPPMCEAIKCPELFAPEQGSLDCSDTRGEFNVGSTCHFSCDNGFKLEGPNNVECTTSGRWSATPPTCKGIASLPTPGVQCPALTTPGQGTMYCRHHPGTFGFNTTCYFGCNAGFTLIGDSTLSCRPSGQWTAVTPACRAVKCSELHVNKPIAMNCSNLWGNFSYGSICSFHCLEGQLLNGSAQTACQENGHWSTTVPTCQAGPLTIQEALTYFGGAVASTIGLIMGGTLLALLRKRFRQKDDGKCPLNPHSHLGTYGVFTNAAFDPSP
Procedure: (§1) P- and E-selectin coated surfaces were treated with fluorescently tagged DS-IkL (30 μM, empty bars) or DS (30 μM, filled bars). […] Data are represented as means±SEM. *p<0.05, **p<0.01, ***p<0.001. n=3 independent experiments.

E-selectin [3] = target: T1, E-selectin; assay: Binding to E-selectin coated surfaces (fluorescently tagged molecule, MFI); settings: increasing concentrations; MFI normalized to vehicle (HBSS); FIG. 6
Procedure: as §1

Substance | neutrophil adhesion to microspheres (E-selectin [1]) | platelet activation as assessed by NAP-2 ([2]; FIG. 7) | platelet activation as assessed by PF-4 ([2]; FIG. 8) | binding to P-selectin coated surfaces (P-selectin) | binding to E-selectin coated surfaces (E-selectin [3])
Ile-(D)lys-Leu-Leu-(D)pro-Hyp-Arg [IkL peptide] | approximately 75 % of control | reduced | reduced | – | –
dermatan sulfate [DS] | – | – | – | not observed in the DS group | not observed in the DS group
